Assay results from US20110021455A1, “STERILISED SUCRALFATE GEL” (PIERRE FABRE DERMO-COSMETIQUE, priority 2008, published 2011).

Columns and labels:
[1] = Sterilisation by gamma rays; assay type: physicochemical; settings: in the form of powder and gel; composition yellows
Description: In fact, after various tests, it seemed that sucralfate, both in the form of powder and gel, is unstable during sterilisation by gamma rays since the composition yellows.

[2] = Sterilisation with ethylene oxide; assay type: physicochemical; settings: requires a long and costly desorption phase

Substance: sucralfate
- stability during sterilisation by gamma rays [1]: unstable
- adsorption of ethylene oxide on sucralfate during sterilisation [2]: substantial adsorption
